# From US6869965B2, “Antimicrobial quinolone derivatives and use of the same to treat bacterial infections” (Pharmacia & Upjohn Company, priority 2000, dated 2005)
# What was measured:
# Format in all cases: cell-based
# E. faecalis UC9217 = experiment: Antibacterial activity, MIC; conditions: strain UC9217
# S. aureus UC9218 = experiment: Antibacterial activity, MIC; conditions: strain UC9218
# S. pneumoniae UC9912 = experiment: Antibacterial activity, MIC; conditions: strain UC9912
# H. influenzae UC30063 = experiment: Antibacterial activity, MIC; conditions: strain UC30063
# M. catarrhalis UC30607 = experiment: Antibacterial activity, MIC; conditions: strain UC30607
# E. coli UC6674 = experiment: Antibacterial activity, MIC; conditions: strain UC6674
# [1] = tested on: E. faecalis, S. aureus, S. pneumoniae, H. influenzae, M. catarrhalis, E. coli; experiment: Antibacterial activity, overall statement on Table 1; conditions: summary in words of Table 1
MIC E. faecalis UC9217 (E. faecalis UC9217),MIC S. aureus UC9218 (S. aureus UC9218),MIC S. pneumoniae UC9912 (S. pneumoniae UC9912),MIC H. influenzae UC30063 (H. influenzae UC30063),MIC M. catarrhalis UC30607 (M. catarrhalis UC30607),MIC E. coli UC6674 (E. coli UC6674),SMILES,antibacterial activity [1]
8 :g/mL,2 :g/mL,4 :g/mL,0.5 :g/mL,4 :g/mL,4 :g/mL,"CC(=O)NC[C@H]1CN(c2ccc(-c3cc4c(cc3F)c(=O)c(C(=O)O)cn4C3CC3)c(F)c2)C(=O)O1 [Example 3, 7-(4{(5S)-5-[(Acetylamino)methyl]2-oxo-1,3-oxazolidin-3-yl}-2-fluorophenyl)-1-cyclopropyl-6-fluoro-4-oxo-1,4-dihydro-3-quinolinecarboxylic acid]",potent antibacterial activity
0.25 :g/mL,0.5 :g/mL,0.125 :g/mL,8 :g/mL,1 :g/mL,16 :g/mL,CC(=O)NC[C@H]1CN(c2ccc(N3CCN(c4cc5c(cc4F)c(=O)c(C(=O)O)cn5C4CC4)CC3)c(F)c2)C(=O)O1 [Example 1],–
0.5 :g/mL,1 :g/mL,0.25 :g/mL,4 :g/mL,2 :g/mL,16 :g/mL,CC(=O)NC[C@H]1CN(c2ccc(N3CCN(c4c(F)cc5c(=O)c(C(=O)O)cn6c5c4OCC6C)CC3)c(F)c2)C(=O)O1 (stereo partly shown) [Example 2],–
